Assays:
Details in all cases: compound 10.0 µM
FLT1 (human) = FLT1 (human) (UniProt P17948)
RPS6KA4 KD1 KD2 (human) = RPS6KA4 KD1 KD2 (human) (UniProt O75676)
STK33 (human) = STK33 (human) (UniProt Q9BYT3)
MUSK (human) = MUSK (human) (UniProt O15146)
PRKCB1 (human) = PRKCB1 (human) (UniProt P05771)
CDK2 CCNA2 (human) = CDK2 CCNA2 (human) (UniProt P24941+P20248)
MAPK11 (human) = MAPK11 (human) (UniProt Q15759)
ABL1 (human) = ABL1 (human) (UniProt P00519)
SLK (human) = SLK (human) (UniProt Q9H2G2)
FGR (human) = FGR (human) (UniProt P09769)
Sequence of FGR (human) (P09769 whole entry, looked up): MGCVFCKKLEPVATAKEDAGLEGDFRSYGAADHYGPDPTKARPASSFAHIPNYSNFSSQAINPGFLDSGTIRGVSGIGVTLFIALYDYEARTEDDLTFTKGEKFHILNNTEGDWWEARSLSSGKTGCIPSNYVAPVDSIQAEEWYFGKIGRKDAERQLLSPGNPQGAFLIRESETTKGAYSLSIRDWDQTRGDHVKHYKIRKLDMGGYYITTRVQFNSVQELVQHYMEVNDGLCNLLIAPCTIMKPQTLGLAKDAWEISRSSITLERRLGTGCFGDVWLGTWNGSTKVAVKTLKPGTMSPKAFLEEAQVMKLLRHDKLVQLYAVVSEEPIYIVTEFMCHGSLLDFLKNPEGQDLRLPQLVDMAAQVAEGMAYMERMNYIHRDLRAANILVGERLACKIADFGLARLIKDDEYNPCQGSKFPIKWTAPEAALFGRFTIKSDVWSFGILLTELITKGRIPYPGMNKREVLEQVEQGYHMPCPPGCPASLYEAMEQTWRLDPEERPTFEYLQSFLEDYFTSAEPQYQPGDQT

TAOK2 (human) = TAOK2 (human) (UniProt Q9UL54)
MST4 (human) = MST4 (human) (UniProt Q9P289)
MYLK (human) = MYLK (human) (UniProt Q15746)
SRPK1 (human) = SRPK1 (human) (UniProt Q96SB4)
MAP3K7 (human) = MAP3K7 (human) (UniProt O43318)
NEK3 (human) = NEK3 (human) (UniProt P51956)
AURKA (human) = AURKA (human) (UniProt O14965)
IKBKE (human) = IKBKE (human) (UniProt Q14164)
Sequence of IKBKE (human) (Q14164 whole entry, looked up): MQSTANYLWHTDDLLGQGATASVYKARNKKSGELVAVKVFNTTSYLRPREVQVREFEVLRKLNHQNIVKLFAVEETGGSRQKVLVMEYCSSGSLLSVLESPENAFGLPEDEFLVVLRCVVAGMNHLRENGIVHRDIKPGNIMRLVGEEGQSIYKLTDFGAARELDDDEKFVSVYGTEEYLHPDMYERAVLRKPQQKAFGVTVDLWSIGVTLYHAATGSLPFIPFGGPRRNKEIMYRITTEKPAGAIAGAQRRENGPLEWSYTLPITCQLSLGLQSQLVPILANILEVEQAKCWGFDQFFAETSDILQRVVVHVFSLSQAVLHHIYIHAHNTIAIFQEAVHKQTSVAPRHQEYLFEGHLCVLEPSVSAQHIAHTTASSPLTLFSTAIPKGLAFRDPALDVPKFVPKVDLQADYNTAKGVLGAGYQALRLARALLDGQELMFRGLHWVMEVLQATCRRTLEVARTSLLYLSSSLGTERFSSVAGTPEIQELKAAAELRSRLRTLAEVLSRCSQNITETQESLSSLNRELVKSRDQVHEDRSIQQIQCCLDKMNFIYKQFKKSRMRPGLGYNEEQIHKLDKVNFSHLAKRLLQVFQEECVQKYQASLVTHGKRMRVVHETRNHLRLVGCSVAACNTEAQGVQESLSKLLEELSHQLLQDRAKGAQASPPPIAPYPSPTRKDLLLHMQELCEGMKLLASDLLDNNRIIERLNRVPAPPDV

IGF1R (human) = IGF1R (human) (UniProt P08069)
ADRBK2 (human) = ADRBK2 (human) (UniProt P35626)
CDK7 CCNH MNAT1 (human) = CDK7 CCNH MNAT1 (human) (UniProt P50613+P51948+P51946)
Sequence of CDK7 CCNH MNAT1 (human) (P50613 whole entry, looked up): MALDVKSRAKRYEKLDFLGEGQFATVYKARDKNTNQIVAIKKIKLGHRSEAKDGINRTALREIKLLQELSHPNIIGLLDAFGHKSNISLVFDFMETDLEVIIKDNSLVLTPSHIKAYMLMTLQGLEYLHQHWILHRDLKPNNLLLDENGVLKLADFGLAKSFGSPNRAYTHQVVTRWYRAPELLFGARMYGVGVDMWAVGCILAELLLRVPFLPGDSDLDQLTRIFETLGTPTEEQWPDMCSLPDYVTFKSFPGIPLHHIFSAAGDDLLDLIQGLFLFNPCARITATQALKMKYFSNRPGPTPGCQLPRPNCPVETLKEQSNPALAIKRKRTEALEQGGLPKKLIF
Sequence of CDK7 CCNH MNAT1 (human) (P51946 whole entry, looked up): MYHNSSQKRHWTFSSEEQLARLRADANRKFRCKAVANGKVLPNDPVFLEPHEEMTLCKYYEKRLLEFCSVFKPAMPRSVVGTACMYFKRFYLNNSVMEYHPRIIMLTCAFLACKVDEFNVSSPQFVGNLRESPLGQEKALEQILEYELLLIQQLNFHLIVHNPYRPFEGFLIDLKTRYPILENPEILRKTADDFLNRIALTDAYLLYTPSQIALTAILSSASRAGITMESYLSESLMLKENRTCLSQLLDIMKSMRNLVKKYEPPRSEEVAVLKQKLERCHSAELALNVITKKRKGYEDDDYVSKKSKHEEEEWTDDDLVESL
Sequence of CDK7 CCNH MNAT1 (human) (P51948 whole entry, looked up): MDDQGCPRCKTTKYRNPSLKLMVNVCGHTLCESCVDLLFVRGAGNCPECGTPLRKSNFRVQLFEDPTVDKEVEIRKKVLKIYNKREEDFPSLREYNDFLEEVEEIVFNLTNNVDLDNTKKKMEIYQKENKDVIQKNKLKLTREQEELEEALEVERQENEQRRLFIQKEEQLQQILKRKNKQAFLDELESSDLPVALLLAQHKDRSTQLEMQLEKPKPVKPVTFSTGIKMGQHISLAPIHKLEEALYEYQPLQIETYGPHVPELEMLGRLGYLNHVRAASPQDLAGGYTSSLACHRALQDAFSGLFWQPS

TEC (human) = TEC (human) (UniProt P42680)
IRAK4 (human) = IRAK4 (human) (UniProt Q9NWZ3)
ERBB4 (human) = ERBB4 (human) (UniProt Q15303)
NLK (human) = NLK (human) (UniProt Q9UBE8)
STK11 (human) = STK11 (human) (UniProt Q15831)
TXK (human) = TXK (human) (UniProt P42681)
CAMKK2 (human) = CAMKK2 (human) (UniProt Q96RR4)
Sequence of CAMKK2 (human) (Q96RR4 whole entry, looked up): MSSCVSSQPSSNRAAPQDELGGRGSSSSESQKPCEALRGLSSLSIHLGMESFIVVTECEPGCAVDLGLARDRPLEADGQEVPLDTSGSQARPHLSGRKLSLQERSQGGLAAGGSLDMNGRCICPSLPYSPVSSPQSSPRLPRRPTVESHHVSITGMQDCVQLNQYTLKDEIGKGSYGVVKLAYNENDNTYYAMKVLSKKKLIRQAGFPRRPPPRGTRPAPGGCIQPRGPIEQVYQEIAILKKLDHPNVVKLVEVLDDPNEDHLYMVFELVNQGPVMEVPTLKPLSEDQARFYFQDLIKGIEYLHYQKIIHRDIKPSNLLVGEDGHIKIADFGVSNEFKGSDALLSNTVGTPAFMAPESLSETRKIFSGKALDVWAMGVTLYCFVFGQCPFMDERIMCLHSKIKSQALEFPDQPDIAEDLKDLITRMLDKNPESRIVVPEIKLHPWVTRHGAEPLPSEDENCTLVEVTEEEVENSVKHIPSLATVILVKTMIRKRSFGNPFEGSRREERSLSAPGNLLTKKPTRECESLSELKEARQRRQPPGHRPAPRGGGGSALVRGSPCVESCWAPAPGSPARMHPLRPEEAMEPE

ADRBK1 (human) = ADRBK1 (human) (UniProt P25098)
CSNK1D (human) = CSNK1D (human) (UniProt P48730)
CSNK1E (human) = CSNK1E (human) (UniProt P49674)
MET (human) = MET (human) (UniProt P08581)
CSNK2A2 (human) = CSNK2A2 (human) (UniProt P19784)
HIPK1 (human) = HIPK1 (human) (UniProt Q86Z02)
STK17A (human) = STK17A (human) (UniProt Q9UEE5)
BRSK2 (human) = BRSK2 (human) (UniProt Q8IWQ3)
DAPK2 (human) = DAPK2 (human) (UniProt Q9UIK4)
LCK (human) = LCK (human) (UniProt P06239)
MAPK10 (human) = MAPK10 (human) (UniProt P53779)
EPHA2 (human) = EPHA2 (human) (UniProt P29317)
ROS1 (human) = ROS1 (human) (UniProt P08922)
PRKCI (human) = PRKCI (human) (UniProt P41743)
ERBB2 (human) = ERBB2 (human) (UniProt P04626)
MAPK3 (human) = MAPK3 (human) (UniProt P27361)

Sequence of ABL1 (human) (P00519 whole entry, looked up): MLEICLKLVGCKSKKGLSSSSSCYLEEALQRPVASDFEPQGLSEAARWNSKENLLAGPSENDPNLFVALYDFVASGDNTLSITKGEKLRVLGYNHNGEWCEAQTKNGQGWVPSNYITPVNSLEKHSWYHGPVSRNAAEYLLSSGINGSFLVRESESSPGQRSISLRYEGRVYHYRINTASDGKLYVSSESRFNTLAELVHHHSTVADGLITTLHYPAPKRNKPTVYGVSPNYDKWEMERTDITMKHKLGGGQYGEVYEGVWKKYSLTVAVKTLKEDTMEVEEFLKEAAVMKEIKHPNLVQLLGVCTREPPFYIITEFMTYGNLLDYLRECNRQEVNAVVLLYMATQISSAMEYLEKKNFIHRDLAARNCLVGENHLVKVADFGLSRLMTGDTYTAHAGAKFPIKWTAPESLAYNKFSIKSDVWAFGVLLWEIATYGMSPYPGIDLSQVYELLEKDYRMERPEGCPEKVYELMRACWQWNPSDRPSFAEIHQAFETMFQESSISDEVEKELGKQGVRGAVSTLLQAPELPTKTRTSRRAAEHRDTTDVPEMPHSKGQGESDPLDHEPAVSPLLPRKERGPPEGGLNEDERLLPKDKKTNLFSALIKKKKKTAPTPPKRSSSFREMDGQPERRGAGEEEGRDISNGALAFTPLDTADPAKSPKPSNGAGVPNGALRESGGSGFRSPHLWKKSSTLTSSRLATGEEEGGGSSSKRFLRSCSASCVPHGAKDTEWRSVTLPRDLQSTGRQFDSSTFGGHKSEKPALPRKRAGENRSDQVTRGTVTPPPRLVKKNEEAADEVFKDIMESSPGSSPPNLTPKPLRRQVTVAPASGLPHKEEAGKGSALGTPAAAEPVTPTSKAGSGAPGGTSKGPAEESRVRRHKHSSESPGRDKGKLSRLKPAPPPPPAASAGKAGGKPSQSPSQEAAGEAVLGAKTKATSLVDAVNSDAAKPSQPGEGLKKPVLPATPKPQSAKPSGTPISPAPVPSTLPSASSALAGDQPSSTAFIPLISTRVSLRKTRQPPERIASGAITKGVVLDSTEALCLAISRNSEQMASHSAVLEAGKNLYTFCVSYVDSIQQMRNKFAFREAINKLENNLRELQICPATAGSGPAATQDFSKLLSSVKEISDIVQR
Sequence of CDK2 CCNA2 (human) (P20248 whole entry, looked up, other chains not shown): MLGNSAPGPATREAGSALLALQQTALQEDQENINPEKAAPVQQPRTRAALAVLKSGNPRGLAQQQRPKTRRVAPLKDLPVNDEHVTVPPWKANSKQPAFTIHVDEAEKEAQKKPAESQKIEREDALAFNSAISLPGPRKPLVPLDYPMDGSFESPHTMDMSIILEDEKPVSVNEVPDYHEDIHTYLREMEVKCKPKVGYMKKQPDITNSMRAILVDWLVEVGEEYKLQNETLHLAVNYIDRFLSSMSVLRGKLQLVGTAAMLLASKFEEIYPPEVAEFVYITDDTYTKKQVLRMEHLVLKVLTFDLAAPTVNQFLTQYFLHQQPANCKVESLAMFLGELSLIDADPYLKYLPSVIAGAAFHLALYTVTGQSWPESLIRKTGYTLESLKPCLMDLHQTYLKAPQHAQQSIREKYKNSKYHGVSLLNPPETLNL
Sequence of MAPK11 (human) (Q15759 whole entry, looked up): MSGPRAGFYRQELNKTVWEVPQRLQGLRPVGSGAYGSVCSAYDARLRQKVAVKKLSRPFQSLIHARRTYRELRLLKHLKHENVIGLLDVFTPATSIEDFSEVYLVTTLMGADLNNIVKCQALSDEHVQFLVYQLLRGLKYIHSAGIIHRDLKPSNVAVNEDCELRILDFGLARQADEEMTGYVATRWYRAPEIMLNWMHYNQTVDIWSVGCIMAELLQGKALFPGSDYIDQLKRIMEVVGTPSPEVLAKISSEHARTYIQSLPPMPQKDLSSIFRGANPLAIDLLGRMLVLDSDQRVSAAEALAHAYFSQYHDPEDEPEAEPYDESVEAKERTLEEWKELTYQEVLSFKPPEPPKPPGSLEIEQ

With `CC[C@H](C)n1cc(C)c2c(C(=O)NCc3c(C)cc(C)[nH]c3=O)cc(-c3ccc(N4CCNCC4)nc3)cc21` as the compound, how does the residual activity (FLT1 (human)) read?
The residual activity was 97.5%.

And the residual activity (RPS6KA4 KD1 KD2 (human))?
Its residual activity is 90.5%.

And the residual activity (STK33 (human))?
The residual activity was 94.5%.

What about the residual activity (MUSK (human)) of the same compound?
Its residual activity is 104%.

And the residual activity (PRKCB1 (human))?
Its residual activity is 102%.

What about the residual activity (CDK2 CCNA2 (human)) of the same compound?
The residual activity was 97%.

What about the residual activity (MAPK11 (human)) of the same compound?
The residual activity was 102%.

What about the residual activity (ABL1 (human)) of the same compound?
The residual activity was 84%.

And the residual activity (SLK (human))?
Its residual activity is 108%.

And the residual activity (FGR (human))?
The residual activity was 91%.

And the residual activity (TAOK2 (human))?
Its residual activity is 103%.

And the residual activity (MST4 (human))?
Its residual activity is 98%.

What about the residual activity (MYLK (human)) of the same compound?
Its residual activity is 96%.

And the residual activity (SRPK1 (human))?
Its residual activity is 108%.

And the residual activity (MAP3K7 (human))?
The residual activity was 106%.

What about the residual activity (NEK3 (human)) of the same compound?
Its residual activity is 107%.

What about the residual activity (AURKA (human)) of the same compound?
The residual activity was 88%.

And the residual activity (IKBKE (human))?
Its residual activity is 94.5%.

And the residual activity (IGF1R (human))?
The residual activity was 96.5%.

What about the residual activity (ADRBK2 (human)) of the same compound?
Its residual activity is 105%.

What about the residual activity (CDK7 CCNH MNAT1 (human)) of the same compound?
Its residual activity is 102%.

And the residual activity (TEC (human))?
The residual activity was 81.5%.

What about the residual activity (IRAK4 (human)) of the same compound?
The residual activity was 107%.

And the residual activity (ERBB4 (human))?
The residual activity was 93.5%.

What about the residual activity (NLK (human)) of the same compound?
Its residual activity is 95%.

And the residual activity (STK11 (human))?
Its residual activity is 106%.

And the residual activity (TXK (human))?
Its residual activity is 85.5%.

And the residual activity (CAMKK2 (human))?
Its residual activity is 98%.

What about the residual activity (ADRBK1 (human)) of the same compound?
Its residual activity is 108%.

What about the residual activity (CSNK1D (human)) of the same compound?
Its residual activity is 100%.

What about the residual activity (CSNK1E (human)) of the same compound?
The residual activity was 94.5%.

What about the residual activity (MET (human)) of the same compound?
Its residual activity is 128%.

And the residual activity (CSNK2A2 (human))?
Its residual activity is 76.5%.

And the residual activity (HIPK1 (human))?
The residual activity was 99%.

And the residual activity (STK17A (human))?
Its residual activity is 96.5%.

What about the residual activity (BRSK2 (human)) of the same compound?
Its residual activity is 103%.

What about the residual activity (DAPK2 (human)) of the same compound?
Its residual activity is 106%.

What about the residual activity (LCK (human)) of the same compound?
The residual activity was 99%.

What about the residual activity (MAPK10 (human)) of the same compound?
Its residual activity is 105%.

What about the residual activity (EPHA2 (human)) of the same compound?
The residual activity was 106%.

What about the residual activity (ROS1 (human)) of the same compound?
Its residual activity is 110%.

What about the residual activity (PRKCI (human)) of the same compound?
The residual activity was 99.5%.

And the residual activity (ERBB2 (human))?
Its residual activity is 100%.

And the residual activity (MAPK3 (human))?
Its residual activity is 99%.
